The assay deals with pan-HDACs. Briefly: Pan-HDAC assay (Fluor-de-Lys fluorometric kit, HeLa Nuclear Extract). The format is biochemical. Conditions: values are average EC50, read-out: EC50 against pan-HDACs. As for the experimental part:
Certain compounds of the invention were tested in a pan-HDAC assay to determine the ability of such compounds to inhibit HDAC protein. Specifically, the compounds tested included: N-(6-(hydroxyamino)-6-oxohexyl)-3-methyl-1H-indole-2-carboxamide (SP-1-161) (FIG. 8A); N^1-hydroxy-N^6-(2-(2-methyl-1H-indol-3-yl)ethyl)octanediamide (SP-1-163) (FIG. 8A); (S)—N-(6-(hydroxyamino)-6-oxohexyl)-1-tosylindoline-2-carboxamide (SP-1-169) (FIG. 8B); and (S)-1-((5-(dimethylamino)naphthalene-1-yl)sulfonyl)-N-(6-(hydroxyamino)-6-oxoheyl)indoline-carboxamide (SP-1-171) (FIG. 8B).
The Pan HDAC assay was performed as follows:
Materials: Enzo Fluor-de-Lys HDAC fluorometric activity assay kit; 360 nm excitation 460 nm emission Plate Reader; Disposable pipettes; Pipet-aid; Pipette tips; Micro-pipetter; DMSO; Sterile micro-tubes and conical tubes; and Micro-centrifuge.
Test compounds and control preparation: All test compounds' stock solutions were made in 100% DMSO. Test compound dilutions were made in HDAC Assay buffer with a final concentration of DMSO less than or equal to 1%. Vehicle control was HDAC Assay buffer with 1% DMSO.
The reagents for the assay were prepared as follows:
1. All kit components were defrosted and these, and all dilutions described below, were kept on ice until use. All undiluted kit components are stable for several hours on ice.
2. A sufficient amount of HeLa Nuclear Extract (BML-KI140) or other HDAC source diluted in Assay Buffer (BML-KI143) was prepared to provide for the assays that were performed (# of wells×15 μl). A 30-fold dilution of the HeLa Extract means that 15 μl contains 0.5 μl of the undiluted Extract, an appropriate amount to use per well.
3. Dilution(s) of Trichostatin A and/or Test Inhibitors were prepared in Assay Buffer (BML-KI143). Since 10 μl were used per well, and since the final volume of the HDAC reaction was 50 μl, these inhibitor dilutions were 5× their final concentration.
4. Dilution(s) of the Fluor de Lys® Substrate (BML-KI104; 50 mM) were prepared in Assay Buffer (BML-KI143) that were 2× the desired final concentration(s). For inhibitor screening, substrate concentrations at or below the Km are recommended. Twenty-five μL were used per well. Initial dilutions of 25-fold or greater in Assay Buffer (2.0 mM or less) yielded stable solutions (see NOTE on freezing and thawing below). Rapid mixing and dilution into room temperature buffer helped to prevent precipitation at high substrate concentration. NOTE: Freezing/thawing of Fluor de Lys® Substrate solutions in Assay Buffer may cause precipitation of the Substrate. Dilute only amount necessary for one day's experiment.
5. Shortly before use (<30 min.), sufficient Fluor de Lys® Developer was prepared for the assays to be performed (50 μl per well). […]

In general, EC50 refers to the midpoint of the concentration-response curve. In the case of `Cc1c(C(=O)NCCCCCC(=O)NO)[nH]c2ccccc12` [SP-1-161, N-(6-(hydroxyamino)-6-oxohexyl)-3-methyl-1H-indole-2-carboxamide], the concentration giving a half-maximal response (EC50) came to 29.7 nM.

These data come from patent US10745352B2, “Dual function molecules for histone deacetylase inhibition and ataxia telangiectasia mutated activation and methods of use thereof” (Shuttle Pharmaceuticals, Inc., priority 2015, dated 2020).
